Laboratory results from ChEMBL document CHEMBL1137842, “Fluorinated dihydroquinolines as potent n-NOS inhibitors” (Bioorg Med Chem Lett, 2004).

Legend:
[1] = pKa value by photometric titration; format: physicochemical
[2] = molecular target: T1, Nitric oxide synthase 3 (Homo sapiens, UniProt P29474); assay: Inhibition of human endothelial nitric oxide synthase
T1 sequence (P29474 whole entry): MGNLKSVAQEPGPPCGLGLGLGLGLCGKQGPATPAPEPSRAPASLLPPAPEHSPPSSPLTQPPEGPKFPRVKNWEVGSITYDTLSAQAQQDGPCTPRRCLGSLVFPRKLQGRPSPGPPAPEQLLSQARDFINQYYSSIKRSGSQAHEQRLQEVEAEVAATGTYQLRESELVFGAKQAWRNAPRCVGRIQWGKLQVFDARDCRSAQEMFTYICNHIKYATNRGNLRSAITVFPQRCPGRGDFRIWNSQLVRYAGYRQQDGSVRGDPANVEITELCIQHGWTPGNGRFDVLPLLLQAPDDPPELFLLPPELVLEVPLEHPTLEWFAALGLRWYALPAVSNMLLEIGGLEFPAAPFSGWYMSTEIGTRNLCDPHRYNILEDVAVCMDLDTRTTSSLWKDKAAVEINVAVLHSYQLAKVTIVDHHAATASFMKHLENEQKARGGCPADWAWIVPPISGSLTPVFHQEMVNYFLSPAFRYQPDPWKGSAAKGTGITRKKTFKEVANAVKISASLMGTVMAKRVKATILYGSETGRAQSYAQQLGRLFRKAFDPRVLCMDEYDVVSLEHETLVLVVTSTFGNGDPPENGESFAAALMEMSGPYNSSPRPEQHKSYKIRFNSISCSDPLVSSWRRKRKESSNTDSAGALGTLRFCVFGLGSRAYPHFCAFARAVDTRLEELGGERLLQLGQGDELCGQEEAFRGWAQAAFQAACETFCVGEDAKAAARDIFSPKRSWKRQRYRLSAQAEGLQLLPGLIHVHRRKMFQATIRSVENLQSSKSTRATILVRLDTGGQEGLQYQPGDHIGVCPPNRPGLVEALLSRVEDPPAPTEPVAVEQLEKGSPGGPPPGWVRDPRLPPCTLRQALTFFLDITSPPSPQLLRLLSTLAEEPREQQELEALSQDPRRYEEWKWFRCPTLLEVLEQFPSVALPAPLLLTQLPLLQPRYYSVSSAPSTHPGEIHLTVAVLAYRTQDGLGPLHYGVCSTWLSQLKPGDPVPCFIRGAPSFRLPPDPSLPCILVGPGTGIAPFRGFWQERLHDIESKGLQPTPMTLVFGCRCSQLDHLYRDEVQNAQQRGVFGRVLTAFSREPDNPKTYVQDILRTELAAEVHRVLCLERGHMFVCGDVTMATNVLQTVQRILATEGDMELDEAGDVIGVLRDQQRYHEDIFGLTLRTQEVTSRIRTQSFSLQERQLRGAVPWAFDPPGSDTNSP

[3] = molecular target: Nitric oxide synthase 1 (Homo sapiens, UniProt P29475); assay: Inhibition of human neuronal nitric oxide synthase
[4] = molecular target: Nitric oxide synthase, inducible (Homo sapiens, UniProt P35228); assay: Inhibition of human inducible nitric oxide synthase
Nitric oxide synthase, inducible, sequence (P35228 whole entry): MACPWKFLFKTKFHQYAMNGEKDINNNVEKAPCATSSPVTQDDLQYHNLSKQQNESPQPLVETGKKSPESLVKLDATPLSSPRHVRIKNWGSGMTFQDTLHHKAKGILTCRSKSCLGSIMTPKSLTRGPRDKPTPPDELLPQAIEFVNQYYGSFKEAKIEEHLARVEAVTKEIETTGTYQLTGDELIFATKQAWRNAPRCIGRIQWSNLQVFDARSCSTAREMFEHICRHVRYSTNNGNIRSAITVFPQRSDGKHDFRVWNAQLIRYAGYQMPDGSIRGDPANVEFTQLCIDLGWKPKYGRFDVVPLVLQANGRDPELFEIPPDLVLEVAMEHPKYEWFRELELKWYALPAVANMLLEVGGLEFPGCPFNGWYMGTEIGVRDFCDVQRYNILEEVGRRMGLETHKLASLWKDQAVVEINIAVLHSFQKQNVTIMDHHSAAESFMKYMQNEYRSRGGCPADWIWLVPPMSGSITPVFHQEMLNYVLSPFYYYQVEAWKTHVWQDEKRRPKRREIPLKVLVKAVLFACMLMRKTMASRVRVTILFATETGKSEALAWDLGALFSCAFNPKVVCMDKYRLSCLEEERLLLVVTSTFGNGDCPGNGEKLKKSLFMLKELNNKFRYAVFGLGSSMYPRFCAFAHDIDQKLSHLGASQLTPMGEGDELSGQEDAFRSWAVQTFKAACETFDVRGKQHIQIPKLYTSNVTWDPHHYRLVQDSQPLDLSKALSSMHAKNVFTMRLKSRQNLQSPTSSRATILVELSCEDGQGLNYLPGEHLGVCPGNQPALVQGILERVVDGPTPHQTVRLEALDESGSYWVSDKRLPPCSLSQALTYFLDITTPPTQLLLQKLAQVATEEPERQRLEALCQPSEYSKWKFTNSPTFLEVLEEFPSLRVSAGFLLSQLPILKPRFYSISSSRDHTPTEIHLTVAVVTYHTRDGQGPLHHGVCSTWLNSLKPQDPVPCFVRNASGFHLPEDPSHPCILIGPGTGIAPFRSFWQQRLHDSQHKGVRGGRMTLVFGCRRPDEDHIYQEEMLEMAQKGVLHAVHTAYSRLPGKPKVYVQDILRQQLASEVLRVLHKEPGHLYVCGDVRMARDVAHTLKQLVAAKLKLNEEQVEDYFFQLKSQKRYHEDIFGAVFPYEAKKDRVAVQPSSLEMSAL

Nitric oxide synthase 1, sequence (P29475 whole entry): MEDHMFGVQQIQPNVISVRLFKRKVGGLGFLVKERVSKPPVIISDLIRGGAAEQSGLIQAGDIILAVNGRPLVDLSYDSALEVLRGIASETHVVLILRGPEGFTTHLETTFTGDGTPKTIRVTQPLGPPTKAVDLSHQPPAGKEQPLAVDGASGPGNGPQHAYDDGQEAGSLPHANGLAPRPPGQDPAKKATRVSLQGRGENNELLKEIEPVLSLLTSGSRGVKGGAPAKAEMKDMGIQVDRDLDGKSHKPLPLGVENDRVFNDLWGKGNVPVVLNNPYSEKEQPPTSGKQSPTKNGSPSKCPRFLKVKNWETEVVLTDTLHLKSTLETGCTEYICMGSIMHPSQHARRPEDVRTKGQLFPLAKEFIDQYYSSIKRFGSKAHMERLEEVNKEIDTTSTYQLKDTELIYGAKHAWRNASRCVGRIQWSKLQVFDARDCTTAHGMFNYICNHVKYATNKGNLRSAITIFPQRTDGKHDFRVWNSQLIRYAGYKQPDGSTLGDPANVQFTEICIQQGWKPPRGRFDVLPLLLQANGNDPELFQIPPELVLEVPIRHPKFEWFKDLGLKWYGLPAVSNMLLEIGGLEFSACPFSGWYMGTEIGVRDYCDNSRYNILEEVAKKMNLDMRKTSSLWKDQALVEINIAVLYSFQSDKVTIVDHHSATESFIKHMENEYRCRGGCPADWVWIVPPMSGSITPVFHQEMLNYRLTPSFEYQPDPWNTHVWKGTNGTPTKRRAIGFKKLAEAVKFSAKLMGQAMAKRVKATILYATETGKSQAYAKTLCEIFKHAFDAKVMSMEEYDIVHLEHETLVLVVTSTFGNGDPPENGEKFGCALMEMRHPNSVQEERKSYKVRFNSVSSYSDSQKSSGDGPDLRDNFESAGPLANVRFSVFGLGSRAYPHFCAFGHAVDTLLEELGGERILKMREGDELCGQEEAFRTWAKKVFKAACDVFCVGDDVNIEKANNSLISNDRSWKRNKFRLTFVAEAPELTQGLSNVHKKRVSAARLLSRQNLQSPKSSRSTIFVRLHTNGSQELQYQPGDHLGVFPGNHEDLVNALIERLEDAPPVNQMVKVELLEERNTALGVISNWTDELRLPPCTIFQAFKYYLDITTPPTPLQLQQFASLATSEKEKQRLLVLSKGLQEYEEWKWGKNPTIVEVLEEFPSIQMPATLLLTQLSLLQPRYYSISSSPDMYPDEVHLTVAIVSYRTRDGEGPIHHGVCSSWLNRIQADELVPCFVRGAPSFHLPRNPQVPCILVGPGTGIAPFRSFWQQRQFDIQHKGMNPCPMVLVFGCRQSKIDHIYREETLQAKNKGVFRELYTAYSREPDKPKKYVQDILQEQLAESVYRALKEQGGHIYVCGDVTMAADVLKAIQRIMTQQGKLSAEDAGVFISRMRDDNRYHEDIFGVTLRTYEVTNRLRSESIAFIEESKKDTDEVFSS

| Compound | pKa [1] | IC50 [2] [nM] | IC50 [3] [nM] | IC50 [4] [nM] |
| --- | --- | --- | --- | --- |
| NC1=Nc2cc(CCCNCc3cccc(Cl)c3)ccc2[C@H]2CCC[C@@]12F | 8 | 38000 | 310 | 2200 |
| CNCCc1ccc2c(c1)N=C(N)[C@]1(F)CCC[C@H]21 | 7.9 | 79000 | 390 | 1900 |
| NC1=Nc2cc(CCCNCc3cccc(Cl)c3)ccc2[C@H]2CCC[C@@H]12 | 9.9 |  |  |  |
| NC1=Nc2ccc(Cl)cc2[C@H]2CCC[C@@]12F | 7.6 | 14000 | 290 | 8100 |
| NC1=Nc2ccc(Cl)cc2[C@H]2CCC[C@@H]12 | 9.4 |  |  |  |
| NC1=Nc2c(F)cc(Cl)cc2[C@H]2CCC[C@@H]12 | 8.2 | 14000 | 290 | 8100 |
| NC1=Nc2c(F)cccc2[C@H]2CCC[C@@H]12 | 8.5 |  |  |  |
| NC1=Nc2ccccc2[C@H]2CCC[C@@]12F | 7.9 | 2700 | 100 | 2100 |
| NC1=Nc2c(F)cccc2[C@H]2CCC[C@@]12F | 6.6 | 22000 | 590 | 25000 |
| CNCc1ccc2c(c1)N=C(N)[C@]1(F)CCC[C@H]21 |  | 66000 | 660 | 1400 |
| NC1=Nc2ccccc2[C@H]2CCC[C@@H]12 | 9.7 |  |  |  |
| NC1=Nc2c(ccc(F)c2F)[C@H]2CCC[C@@H]12 | 8 |  |  |  |
